This note sets out measurements from patent US12370183B2, “Compositions and methods for treating malaria” (Rutgers, The State University of New Jersey, priority 2020, dated 2025).

Like-named read-outs stand apart in the source and are kept apart here.

Common to all, as to format: cell-based
The test system of series [1] is 3D7 strain of Plasmodium falciparum. Briefly: Potency in the 3D7 strain of Plasmodium falciparum (EC50). Particulars: Plasmodium falciparum. From the text: (§1) The present invention relates to methods of treating malaria with tetrahydrobenzonaphtyridine carboxanilide (TBN) derivatives and related pyrrolinones and hydrolysis products thereof. These compounds are active against Plasmodium falciparum strains that are resistant to multiple drugs currently on the market. The present invention further relates to novel compounds and pharmaceutical compositions comprising such compounds. The compounds have been synthesized and tested for their potency in the 3D7 strain of Plasmodium falciparum. Their cytotoxicity was also tested in the BJ human fibroblast line. No compounds show significant cytotoxicity.
(§2) A high-throughput screen performed against the Plasmodium parasite. About 8,000 compounds were screened. Each hit was tested against resistant P. falciparum variants K1, V1S, D10DD, ATP4 1247, and C2B. Potency against these assays assured that the chemotype acts through a mechanism distinct from that of halofantrine, chloroquine, mefloquine, pyrimethamine, proguanil, atovaquone, and (+)SJ733. The toxicity of the compounds was also measured by testing their lethality against a BJ cell line (human fibroblasts). No TBNs were toxic. A structure activity investigation was performed in order to improve the EC50 of the TBNs to the single-digit nanomolar range, as well as to increase the water solubility.
(§3) Substituents were installed at N−2 by using a variety of methods. Reductive alkylation (Abdel-Magid, A. F.; Mehrman, S. J. A Review on the Use of Sodium Triacetoxyborohydride in the Reductive Amination of Ketones and Aldehydes. Org. Process Res. Dev. 2006, 10 (5), 971-1031) was a dependable technique that produced over fifteen analogues. Conjugate additions and nucleophilic substitutions provided most of the others. A type of reductive alkylation that uses carboxylic acids instead of aldehydes (the Beller reduction) led to two analogues (Sorribes, I.; Junge, K.; Beller, M. Direct Catalytic N-Alkylation of Amines with Carboxylic Acids. J. Am. Chem. Soc. 2014, 136 (40), 14314-14319. Some of the compounds listed were synthesized through other means, or were derived from other TBNs. Compounds 66 and 128 were produced by the amidation of acids 132 and 133, which had the corresponding substitution already installed. TBNs 93, and 94 were produced from the Pfitzinger products formed from the condensation of isatin with (R)-1-(1-phenylethyl)piperidin-4-one (134) and (S)-1-(1-phenylethyl)piperidin-4-one (135), respectively.

Another series in a line: in vitro. Particulars: human.
Text: as §1, §2

In series [2] the test system is resistant P. falciparum variant K1. Briefly: Potency against resistant P. falciparum variant K1 (EC50). To be noted: Plasmodium falciparum, K1, read-out: K1 EC50 (μM). The procedure:
as §2, §3

Setting [3] is: 3D7, read-out: 3D7 Mean EC50 (μM).
[4] abbreviates: 3D7, read-out: 3D7 Mean EC50 of the TBN (μM).

For orientation: EC50 means the concentration giving half of the maximal effect. Take `O=C1c2c3c(nc4ccc(Cl)cc24)CCN(CCc2ccccc2)C3N1c1ccc(Br)cc1` (stereo not shown) [Compound 182, 2-(4-Bromophenyl)-9-chloro-3-phenethyl-2a,3,4,5-tetrahydrobenzo[b]pyrrolo[4,3,2-de][1,6]naphthyridin-1(2H)-one]: the values for the EC50 (in series [1] (setting [3]); in “in vitro”) were 0.0396 ± 0.017 µM and > 24 µM, respectively.

For `COc1ccc(N2C(=O)c3c4c(nc5cc(Cl)ccc35)CCN(CCc3ccccc3)C42)cc1OC` (stereo not shown) [Compound 178, 8-Chloro-2-(3,4-dimethoxyphenyl)-3-phenethyl-2a,3,4,5-tetrahydrobenzo[b]pyrrolo[4,3,2-de][1,6]naphthyridin-1(2H)-one], the EC50 is 0.00446 ± 0.002 µM in series [1] (setting [3]) and 9.32 ± 6.69 µM in the series “in vitro”.

As to `O=C(Nc1cccc(Cl)c1)c1c2c(nc3cc(Cl)ccc13)CCN(CCc1ccccc1)C2` [Compound 167, 7-Chloro-N-(3-chlorophenyl)-2-phenethyl-1,2,3,4-tetrahydrobenzo[b][1,6]naphthyridine-10-carboxamide], the EC50 is 0.0216 ± 0.012 µM in series [1] (setting [3]) and > 24 µM in “in vitro”.

For the molecule `O=C(Nc1ccc(F)c(F)c1)c1c2c(nc3ccccc13)CCN(Cc1ccccn1)C2` [Compound 105, N-(3,4-Difluorophenyl)-2-(pyridin-2-ylmethyl)-1,2,3,4-tetrahydrobenzo[b][1,6]naphthyridine-10-carboxamide], the EC50 in series [1] (setting [3]) came to 0.456 ± 0.0964 µM; in series [2] it was 0.129 µM.

For the molecule `O=C(Nc1ccc(F)c(F)c1)c1c2c(nc3ccccc13)CCN(Cc1cccnc1)C2` [Compound 106, N-(3,4-Difluorophenyl)-2-(pyridin-3-ylmethyl)-1,2,3,4-tetrahydrobenzo[b][1,6]naphthyridine-10-carboxamide], the figures for the EC50 in series [1] (setting [3]) and in series [2] were 0.475 ± 0.163 µM and 0.236 µM, respectively.

In the case of `CC(c1ncccn1)N1CCc2nc3c(c(C(=O)Nc4ccc(F)c(F)c4)c2C1)CCCC3` (stereo not shown) [Compound 139, N-(3,4-Difluorophenyl)-2-(1-(pyrimidin-2-yl)ethyl)-1,2,3,4,6,7,8,9-octahydrobenzo[b][1,6]naphthyridine-10-carboxamide], the values for the EC50 in series [1] (setting [3]), in series [1] (setting [4]) and in series [2] were 0.849 ± 0.52 µM, 0.453 ± 0.238 µM and 0.266 ± 0.0462 µM, respectively.

Take `CC(C)(O)CCN1CCc2nc3ccccc3c(C(=O)Nc3ccc(F)c(F)c3)c2C1` [Compound 116, N-(3,4-Difluorophenyl)-2-(3-hydroxy-3-methylbutyl)-1,2,3,4-tetrahydrobenzo[b][1,6]naphthyridine-10-carboxamide]: the EC50 in series [1] (setting [3]) is 2.01 ± 0.277 µM; in series [2] it was 1.44 ± 0.337 µM.

For the molecule `O=C(Nc1ccc(F)c(F)c1)c1c2c(nc3ccccc13)CCN(CCCO)C2` [Compound 122, N-(3,4-Difluorophenyl)-2-(3-hydroxypropyl)-1,2,3,4-tetrahydrobenzo[b][1,6]naphthyridine-10-carboxamide], the figures for the EC50 in series [1] (setting [3]) and in series [2] were 6.81 ± 2.54 µM and 4.64 ± 1.55 µM, respectively.

In the case of `COC(=O)C(C)CN1CCc2nc3ccccc3c(C(=O)Nc3ccc(F)c(F)c3)c2C1` (stereo not shown) [Compound 97, Methyl 3-(10-((3,4-difluorophenyl)carbamoyl)-3,4-dihydrobenzo[b][1,6]naphthyridin-2(1H)-yl)-2-methylpropanoate], the figures for the EC50 in series [1] (setting [3]) and in series [2] were 0.328 ± 0.17 µM and 0.185 µM, respectively.

With `CN(C)CCCN1CCc2nc3ccccc3c(C(=O)Nc3ccc(F)c(F)c3)c2C1` [Compound 126, N-(3,4-Difluorophenyl)-2-(3-(dimethylamino)propyl)-1,2,3,4-tetrahydrobenzo[b][1,6]naphthyridine-10-carboxamide], the EC50 in series [1] (setting [3]) was 9.46 ± 2.17 µM; in series [2], > 19.2 µM.

Regarding `NCCN1CCc2nc3ccccc3c(C(=O)Nc3ccc(F)c(F)c3)c2C1` [Compound 129, 2-(2-Aminoethyl)-N-(3,4-difluorophenyl)-1,2,3,4-tetrahydrobenzo[b][1,6]naphthyridine-10-carboxamide], the EC50 in series [1] (setting [3]) is 14.5 ± 4.73 µM; in series [2], 9.46 ± 0.982 µM.

For the molecule `CCN1CCc2nc3c(c(C(=O)Nc4ccc(F)c(F)c4)c2C1)CCCC3` [Compound 138, N-(3,4-Difluorophenyl)-2-ethyl-1,2,3,4,6,7,8,9-octahydrobenzo[b][1,6]naphthyridine-10-carboxamide], the half-maximal effective concentration (EC50) in series [1] (setting [3]) is 0.715 ± 0.29 µM; in series [1] (setting [4]), > 12.2 µM; in series [2] it was 0.64 µM.

As to `CN(C)CCN1CCc2nc3ccccc3c(C(=O)Nc3ccc(F)c(F)c3)c2C1` [Compound 124, N-(3,4-Difluorophenyl)-2-(2-(dimethylamino)ethyl)-1,2,3,4-tetrahydrobenzo[b][1,6]naphthyridine-10-carboxamide], the figures for the EC50 in series [1] (setting [3]) and in series [2] were 8.54 ± 1.84 µM and > 19.2 µM, respectively.

As for `O=C(Nc1ccc(F)c(F)c1)c1c2c(nc3ccccc13)CCN(CCOC1CCCCO1)C2` (stereo not shown) [Compound 102, N-(3,4-Difluorophenyl)-2-(2-((tetrahydro-2H-pyran-2-yl)oxy)ethyl)-1,2,3,4-tetrahydrobenzo[b][1,6]naphthyridine-10-carboxamide], the figures for the EC50 in series [1] (setting [3]) and in series [2] were 0.441 ± 0.156 µM and 0.178 ± 0.0436 µM, respectively.

As to `CC(C)CN1CCc2nc3ccccc3c(C(=O)Nc3ccc(F)c(F)c3)c2C1` [Compound 95, N-(3,4-Difluorophenyl)-2-isobutyl-1,2,3,4-tetrahydrobenzo[b][1,6]naphthyridine-10-carboxamide], the values for the EC50 in series [1] (setting [3]) and in series [2] were 0.154 ± 0.162 µM and 0.121 µM, respectively.

On to `CC(c1ccccn1)N1CCc2nc3c(c(C(=O)Nc4ccc(F)c(F)c4)c2C1)CCCC3` (stereo not shown) [Compound 140, N-(3,4-Difluorophenyl)-2-(1-(pyridin-2-yl)ethyl)-1,2,3,4,6,7,8,9-octahydrobenzo[b][1,6]naphthyridine-10-carboxamide], for which the EC50 in series [1] (setting [3]) came to 1.5 ± 0.389 µM; in series [1] (setting [4]), 0.0603 ± 0.0234 µM; in series [2] it was 0.558 ± 0.123 µM.

Turning to `O=C(Nc1ccc(F)c(F)c1)c1c2c(nc3ccccc13)CCN(CCc1ccccc1)C2` [Compound 91, N-(3,4-Difluorophenyl)-2-phenethyl-1,2,3,4-tetrahydrobenzo[b][1,6]naphthyridine-10-carboxamide], the EC50 turned out to be 0.117 ± 0.102 µM in series [1] (setting [3]) and 0.0839 µM in series [2].

As for `O=C(Nc1ccc(F)c(F)c1)c1c2c(nc3c1CN(Cc1ccccc1)CC3)CCCC2` [Compound 137, 2-Benzyl-N-(3,4-difluorophenyl)-1,2,3,4,6,7,8,9-octahydrobenzo[b][1,6]naphthyridine-10-carboxamide], the EC50 in series [1] (setting [3]) is 0.0949 ± 0.0266 µM; in series [1] (setting [4]), > 3.49 µM; in series [2] it was 0.279 µM.

Consider `O=C(Nc1ccc(F)c(F)c1)c1c2c(nc3ccccc13)CCN(Cc1ccncc1)C2` [Compound 111, N-(3,4-Difluorophenyl)-2-(pyridin-4-ylmethyl)-1,2,3,4-tetrahydrobenzo[b][1,6]naphthyridine-10-carboxamide], for which the EC50 was 0.983 ± 0.133 µM in series [1] (setting [3]) and 0.647 µM in series [2].

As for `CC(c1ncccn1)N1CCc2nc3ccccc3c(C(=O)Nc3ccc(F)c(F)c3)c2C1` (stereo not shown) [Compound 104, N-(3,4-Difluorophenyl)-2-(1-(pyrimidin-2-yl)ethyl)-1,2,3,4-tetrahydrobenzo[b][1,6]naphthyridine-10-carboxamide], the figures for the EC50 in series [1] (setting [3]) and in series [2] were 0.453 ± 0.238 µM and 0.117 ± 0.0339 µM, respectively.

Regarding `O=C(O)CCN1CCc2nc3ccccc3c(C(=O)Nc3ccc(F)c(F)c3)c2C1` [Compound 131, 3-(10-((3,4-Difluorophenyl)carbamoyl)-3,4-dihydrobenzo[b][1,6]naphthyridin-2(1H)-yl)propanoic acid], the EC50 in series [1] (setting [3]) and in series [2] was > 19.2 µM throughout.

As to `C[C@H](c1ccccc1)N1CCc2nc3ccccc3c(C(=O)Nc3ccc(F)c(F)c3)c2C1` [Compound 93, (R)—N-(3,4-Difluorophenyl)-2-(1-phenylethyl)-1,2,3,4-tetrahydrobenzo[b][1,6]naphthyridine-10-carboxamide], the results for the EC50 in series [1] (setting [3]) and in series [2] were 0.131 ± 0.00623 µM and 0.064 µM, respectively.

For `O=C(Nc1ccc(F)c(F)c1)c1c2c(nc3ccccc13)CCN(Cc1ccc(F)cc1)C2` [Compound 107, N-(3,4-Difluorophenyl)-2-(4-fluorobenzyl)-1,2,3,4-tetrahydrobenzo[b][1,6]naphthyridine-10-carboxamide], the half-maximal effective concentration (EC50) came to 0.569 µM in series [1] (setting [3]) and 0.401 µM in series [2].

In the case of `O=C(Nc1ccc(F)c(F)c1)c1c2c(nc3ccccc13)CCN(Cc1cccc(F)c1)C2` [Compound 100, N-(3,4-Difluorophenyl)-2-(3-fluorobenzyl)-1,2,3,4-tetrahydrobenzo[b][1,6]naphthyridine-10-carboxamide], the EC50 in series [1] (setting [3]) was found to be 0.412 ± 0.291 µM; in series [2], 0.161 µM.
